{
  "source": "patent US20200188426A1",
  "about": "“WOUND MANAGEMENT METHOD” (priority 2018, published 2020)",
  "test_system": "microbes (bacteria, fungi, and viruses)",
  "test": "testing of methylene chloride as microbicidal agent",
  "type": "cell-based",
  "conditions": "in liquid form, prior to evaporation",
  "data": [
    {"smiles": "ClCCl", "note": "[methylene chloride]", "values": [
      {"measurement": "microbicidal activity on contact", "value": "kill microbes (bacteria, fungi, and viruses) on contact"}
    ]}
  ]
}
